Laboratory results taken from article PMC7224190, “Pharmacological inhibition of PRMT7 links arginine monomethylation to the cellular stress response” (Nature Communications, 2020).

Assays:
PRMT6 = PRMT6 (Homo sapiens, UniProt Q96LA8); experiment: biochemical; set-up: radiometric methyltransferase assay with tritiated SAM, IC50
PRMT9 = target: T1, PRMT9 (Homo sapiens, UniProt Q6P2P2); experiment: biochemical; set-up: radiometric methyltransferase assay with tritiated SAM, IC50
T1 sequence (Q6P2P2 1-845): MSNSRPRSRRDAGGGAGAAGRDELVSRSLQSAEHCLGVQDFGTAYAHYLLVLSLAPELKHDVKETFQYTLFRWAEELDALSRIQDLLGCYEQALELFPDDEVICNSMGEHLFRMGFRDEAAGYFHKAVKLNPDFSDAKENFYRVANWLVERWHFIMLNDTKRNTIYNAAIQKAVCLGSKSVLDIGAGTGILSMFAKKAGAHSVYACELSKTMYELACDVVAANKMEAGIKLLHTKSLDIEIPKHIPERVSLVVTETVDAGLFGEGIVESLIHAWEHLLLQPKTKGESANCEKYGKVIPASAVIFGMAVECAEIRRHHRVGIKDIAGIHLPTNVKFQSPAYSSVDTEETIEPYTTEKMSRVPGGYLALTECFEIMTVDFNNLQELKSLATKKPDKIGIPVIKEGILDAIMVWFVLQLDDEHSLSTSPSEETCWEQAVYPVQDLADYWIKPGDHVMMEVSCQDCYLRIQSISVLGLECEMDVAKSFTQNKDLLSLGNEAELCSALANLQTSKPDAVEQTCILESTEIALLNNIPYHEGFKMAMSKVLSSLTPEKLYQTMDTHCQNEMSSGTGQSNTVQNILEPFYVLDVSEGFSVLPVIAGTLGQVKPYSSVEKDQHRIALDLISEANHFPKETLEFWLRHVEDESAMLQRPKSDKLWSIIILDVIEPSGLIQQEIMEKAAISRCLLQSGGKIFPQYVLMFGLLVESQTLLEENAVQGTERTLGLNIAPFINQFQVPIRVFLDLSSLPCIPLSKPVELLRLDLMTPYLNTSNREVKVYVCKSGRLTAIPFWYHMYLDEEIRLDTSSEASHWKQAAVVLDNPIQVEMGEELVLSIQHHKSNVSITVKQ

PRMT1 = PRMT1 (Homo sapiens, UniProt Q99873); experiment: biochemical; set-up: radiometric methyltransferase assay with tritiated SAM, IC50
Sequence of PRMT1 (Q99873 whole entry): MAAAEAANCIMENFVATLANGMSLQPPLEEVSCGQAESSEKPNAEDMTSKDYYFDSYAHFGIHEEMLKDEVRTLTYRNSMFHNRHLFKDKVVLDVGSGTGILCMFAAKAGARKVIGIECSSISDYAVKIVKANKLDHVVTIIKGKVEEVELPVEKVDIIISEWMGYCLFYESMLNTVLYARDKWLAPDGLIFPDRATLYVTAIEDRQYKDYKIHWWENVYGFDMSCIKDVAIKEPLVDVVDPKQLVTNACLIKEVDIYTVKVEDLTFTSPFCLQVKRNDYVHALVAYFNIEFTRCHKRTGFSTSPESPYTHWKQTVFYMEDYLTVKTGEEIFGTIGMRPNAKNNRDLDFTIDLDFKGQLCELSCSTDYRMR

BCDIN3D = target: T2, BCDIN3D (Homo sapiens, UniProt Q7Z5W3); experiment: biochemical; set-up: radiometric methyltransferase assay with tritiated SAM, IC50
T2 sequence (Q7Z5W3 1-292): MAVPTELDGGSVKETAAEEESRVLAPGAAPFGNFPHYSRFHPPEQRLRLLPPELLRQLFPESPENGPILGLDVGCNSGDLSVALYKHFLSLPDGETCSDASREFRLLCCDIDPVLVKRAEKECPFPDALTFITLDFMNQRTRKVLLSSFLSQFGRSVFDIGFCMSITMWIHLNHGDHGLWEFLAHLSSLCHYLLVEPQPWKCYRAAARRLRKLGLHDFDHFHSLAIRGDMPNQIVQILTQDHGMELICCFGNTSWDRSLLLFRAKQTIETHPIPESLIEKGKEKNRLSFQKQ

PRMT7 = target: T3, PRMT7 (Homo sapiens, UniProt Q9NVM4); experiment: radiometric SPA methyltransferase assay (negative control compound, weak); format: biochemical
T3 sequence (Q9NVM4 1-692): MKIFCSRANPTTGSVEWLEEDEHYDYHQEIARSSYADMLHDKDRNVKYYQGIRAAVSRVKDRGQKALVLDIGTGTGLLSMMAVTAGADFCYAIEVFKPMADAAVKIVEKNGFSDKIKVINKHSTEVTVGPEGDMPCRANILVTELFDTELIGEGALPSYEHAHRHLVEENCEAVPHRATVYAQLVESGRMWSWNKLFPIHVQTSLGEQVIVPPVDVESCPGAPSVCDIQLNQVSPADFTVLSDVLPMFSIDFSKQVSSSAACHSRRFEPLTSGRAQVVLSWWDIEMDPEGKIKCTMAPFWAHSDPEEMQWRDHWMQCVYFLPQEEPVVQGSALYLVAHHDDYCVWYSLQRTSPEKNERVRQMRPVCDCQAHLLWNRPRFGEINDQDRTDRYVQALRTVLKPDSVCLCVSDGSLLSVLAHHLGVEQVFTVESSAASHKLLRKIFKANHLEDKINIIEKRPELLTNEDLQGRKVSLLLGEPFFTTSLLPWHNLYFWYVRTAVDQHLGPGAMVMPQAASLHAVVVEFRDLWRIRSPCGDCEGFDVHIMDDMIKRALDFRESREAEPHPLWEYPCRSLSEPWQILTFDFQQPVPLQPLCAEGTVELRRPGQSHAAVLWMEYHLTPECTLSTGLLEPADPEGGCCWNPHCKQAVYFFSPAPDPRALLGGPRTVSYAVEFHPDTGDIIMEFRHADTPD

Sequence of PRMT6 (Q96LA8 whole entry): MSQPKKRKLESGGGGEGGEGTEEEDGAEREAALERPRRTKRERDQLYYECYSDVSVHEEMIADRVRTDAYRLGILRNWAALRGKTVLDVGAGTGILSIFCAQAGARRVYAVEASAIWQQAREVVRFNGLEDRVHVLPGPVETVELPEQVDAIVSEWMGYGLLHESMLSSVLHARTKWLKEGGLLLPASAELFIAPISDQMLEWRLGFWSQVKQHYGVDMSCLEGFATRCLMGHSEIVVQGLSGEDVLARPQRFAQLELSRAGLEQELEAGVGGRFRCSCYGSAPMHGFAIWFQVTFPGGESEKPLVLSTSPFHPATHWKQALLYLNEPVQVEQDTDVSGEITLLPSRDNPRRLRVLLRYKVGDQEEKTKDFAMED

| Compound | IC50 (PRMT6) [µM] | IC50 (PRMT9) [µM] | IC50 (PRMT1) [µM] | IC50 (BCDIN3D) [µM] | IC50 (PRMT7) [µM] |
| --- | --- | --- | --- | --- | --- |
| Nc1ncnc2c1ncn2[C@@H]1O[C@H](CSCCCCNCc2cccc(-c3ccc(Cl)cc3)c2)[C@@H](O)[C@H]1O [SGC8158] | 15 | 0.16 | 12 | 1.1 |  |
| CC1(C)O[C@@H]2[C@H](O1)[C@@H](CSCCCCNCc1cccc(-c3ccc(Cl)cc3)c1)O[C@H]2n1cnc2c(N)ncnc21 [SGC8158N] |  |  |  |  | 14 ± 2 |
